# Results reported in PubChem BioAssay (NCI).
#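 A five-concentration, 48-hour dose response in 96-well plates underlies each endpoint, interpolated linearly between surrounding concentrations. The concentration for full growth arrest is given as TGI.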
# Experiments:
# Assay in all cases: growth of human tumour cells (NCI), 48 h
# NCI-H226 lung = tested on: NCI-H226 lung
# MOLT-4 leukemia = tested on: MOLT-4 leukemia
# NCI/ADR-RES ovarian = tested on: NCI/ADR-RES ovarian
# MDA-MB-435 = tested on: MDA-MB-435
# NCI-H460 lung = tested on: NCI-H460 lung
# IGROV1 ovarian = tested on: IGROV1 ovarian
# HCT-15 colon = tested on: HCT-15 colon
# SNB-75 CNS = tested on: SNB-75 CNS
# HOP-62 NSCLC = tested on: HOP-62 NSCLC
# RXF 393 renal = tested on: RXF 393 renal
# MDA-MB-231 breast = tested on: MDA-MB-231 breast
# OVCAR-3 ovarian = tested on: OVCAR-3 ovarian
# ACHN renal = tested on: ACHN renal
# MCF7 breast = tested on: MCF7 breast
# SF-295 CNS = tested on: SF-295 CNS
# T-47D breast = tested on: T-47D breast
# TK-10 renal = tested on: TK-10 renal
# BT-549 breast = tested on: BT-549 breast
Compound,TGI (NCI-H226 lung) [µM],TGI (MOLT-4 leukemia) [µM],TGI (NCI/ADR-RES ovarian) [µM],TGI (MDA-MB-435) [µM],TGI (NCI-H460 lung) [µM],TGI (IGROV1 ovarian) [µM],TGI (HCT-15 colon) [µM],TGI (SNB-75 CNS) [µM],TGI (HOP-62 NSCLC) [µM],TGI (RXF 393 renal) [µM],TGI (MDA-MB-231 breast) [µM],TGI (OVCAR-3 ovarian) [µM],TGI (ACHN renal) [µM],TGI (MCF7 breast) [µM],TGI (SF-295 CNS) [µM],TGI (T-47D breast) [µM],TGI (TK-10 renal) [µM],TGI (BT-549 breast) [µM]
CN(C)CCNC1=CC(=O)c2c(O)ccc(O)c2C1=O,39.8,> 100,7.78,3.33,14.6,16.7,> 40.8,31.9,30.3,31.4,25,5.67,25.8,7.27,24.3,25.5,28,31
CC(C)NC(=O)OCc1c(COC(=O)NC(C)C)c(-c2ccc[n+](COC(=O)C3CC3)c2)n2c1CCC2,> 100,> 100,> 100,> 100,> 100,> 100,> 100,> 100,> 100,> 100,> 100,> 100,82.7,> 100,> 100,> 100,> 100,> 100
CCOP(=O)(OCC)/C(C#N)=C/c1cccn1N(C)C,> 100,> 100,> 100,> 100,> 100,> 100,> 100,> 100,> 100,> 100,> 100,> 100,> 100,> 100,> 100,96.3,> 100,> 100
